From patent US7309491B2, “Heat shock protein-based vaccines and immunotherapies” (priority 2003, dated 2007)
Values joined by “and” are separate entries in the source; they are usually repeats but may differ in a detail not shown here. Equal values may be shown once. Read-outs that look alike come from different tables or passages of the source.

Legend:
[1] = molecular target: recombinant human or murine heat shock protein 70 (hsp70); assay: Scatchard analysis of labeled reference hybrid antigen binding to hsp70; conditions: 39% PBS, 20 mM THAM pH 8, 37 mM NaCl, 5 mM MgCl2, 1 mM ADP
[2] = tested on: CD8+ T cells; type: in vivo, B6 mice
[3] = tested on: T cells of HHD II mice bearing human HLA-A2; conditions: mouse, in vivo
[4] = tested on: SIINFEKL-pulsed target cells; parameters: species or system mice; conditions: mouse, in vivo
[5] = tested on: modified to express ovalbumin (E.G7); parameters: species or system B6 mice; conditions: mouse, in vivo
[6] = tested on: B3Z cells; assay: in-vitro antigen presentation assay (IL-2 produced by B3Z cells); type: cell-based
Source text: The in-vitro antigen presentation assay described above was utilized further in order to evaluate the formulations of the invention.

[7] = molecular target: recombinant human or murine heat shock protein 70 (hsp70); assay: hsp70 binding inhibition assay (Hill plots) relative to labeled reference hybrid antigen; conditions: read-out: Kd for hsp70 binding, antigenic domains alone
[8] = Ex. 17 prime-boost, doses as E100

Sequence: ALFDIESKVGSGHWDFAWPW
- Kd ([1]; fluoresceinated label): 10.8 µM
- Kd ([1]; tritiated label): 22.6 µM

Sequence: FFRKSIINFEKLFFRKRGYVYQGL [reference compound]
- Number of Spots per 300,000 cells: Medium control ([2]; mouse, in vivo): 1.7 ± 0.4
- Number of Spots per 300,000 cells: RGYVYQGL (SEQ ID NO:879) ([2]; mouse, in vivo): 31 ± 5.5
- Number of Spots per 300,000 cells: SIINFEKL (SEQ ID NO:868) ([2]; mouse, in vivo): 8.3 ± 1.1

Sequence: NLLRLTGWFFRKDAPIYTNV (SEQ ID NO:910) (Hybrid antigen)
- Number of Spots per 300,000 cells, Medium ([2]; mouse, in vivo): 0.7 ± 0.4 Spots per 300,000 cells
- Number of Spots per 300,000 cells, Response to Class I epitope when Class I and Class II hybrid antigen admixture is administered ([2]; mouse, in vivo): 13 ± 3.9 Spots per 300,000 cells
- Number of Spots per 300,000 cells, Response to Class I epitope when Class I hybrid antigen administered ([2]; mouse, in vivo): 2 ± 1.9 Spots per 300,000 cells
- Number of Spots per 300,000 cells, Splenocytes ([2]; mouse, in vivo): 0 ± 0 Spots per 300,000 cells

Sequence: NLLRLTGWFFRKFAPGNYPAL (SEQ ID NO:892) (Hybrid antigen)
- Number of Spots per 300,000 cells, FAPGNYPAL (SEQ ID NO:906) ([2]; mouse, in vivo): 4.3 ± 3.2 Spots per 300,000 cells
- Number of Spots per 300,000 cells, IAYFYPEL (SEQ ID NO:904) ([2]; mouse, in vivo): 0.3 ± 0.6 Spots per 300,000 cells
- Number of Spots per 300,000 cells, Medium ([2]; mouse, in vivo): 0 ± 0 Spots per 300,000 cells

Sequence: NLLRLTGWFFRKIAYFYPEL (SEQ ID NO:913) (Hybrid antigen)
- Number of Spots per 300,000 cells, Medium ([2]; mouse, in vivo): 0 ± 0 Spots per 300,000 cells
- Number of Spots per 300,000 cells, Response to Class I epitope when Class I and Class II hybrid antigen admixture is administered ([2]; mouse, in vivo): 73 ± 9.8 Spots per 300,000 cells
- Number of Spots per 300,000 cells, Response to Class I epitope when Class I hybrid antigen administered ([2]; mouse, in vivo): 11 ± 3 Spots per 300,000 cells
- Number of Spots per 300,000 cells, Splenocytes ([2]; mouse, in vivo): 0 ± 0 Spots per 300,000 cells

Sequence: NLLRLTGWFFRKIAYFYPELFFRKFAPGNYPAL
- Number of Spots per 300,000 cells: FAPGNYPAL (SEQ ID NO:891) ([2]; mouse, in vivo): 136 ± 6.6
- Number of Spots per 300,000 cells: IAYFYPEL (SEQ ID NO:904) ([2]; mouse, in vivo): 128 ± 9.2
- Number of Spots per 300,000 cells: RGYVYQGL (SEQ ID NO:879) ([2]; mouse, in vivo): 1.7 ± 0.8
- Number of Spots per 300,000 cells: SIINFEKL (SEQ ID NO:868) ([2]; mouse, in vivo): 1.7 ± 1.1

Sequence: NLLRLTGWFFRKIMDQVPFSV
- Number of Spots per 400,000 cells: IMD [3]: 27 ± 5.1 spots per 400,000 cells
- Number of Spots per 400,000 cells: Medium control [3]: 0.0 ± 0.0 spots per 400,000 cells
- Number of Spots per 400,000 cells: Unpulsed control [3]: 0.0 ± 0.0 spots per 400,000 cells
- Number of Spots per 400,000 cells: YMD control [3]: 2.0 ± 2.0 spots per 400,000 cells

Sequence: NLLRLTGWFFRKRTFSFQLI (SEQ ID NO:912) (Hybrid antigen)
- Number of Spots per 300,000 cells, Medium ([2]; mouse, in vivo): 0.3 ± 0.4 Spots per 300,000 cells
- Number of Spots per 300,000 cells, Response to Class I epitope when Class I and Class II hybrid antigen admixture is administered ([2]; mouse, in vivo): 43 ± 7.6 Spots per 300,000 cells
- Number of Spots per 300,000 cells, Response to Class I epitope when Class I hybrid antigen administered ([2]; mouse, in vivo): 5.3 ± 1.5 Spots per 300,000 cells
- Number of Spots per 300,000 cells, Splenocytes ([2]; mouse, in vivo): 0 ± 0 Spots per 300,000 cells

Sequence: NLLRLTGWFFRKSIINFEKL
- Number of Spots per 4 × 10^5 CD8 T cells: Con A Positive control ([2]; mouse, in vivo): 459 ± 149
- Number of Spots per 4 × 10^5 CD8 T cells: Medium control ([2]; mouse, in vivo): 1.00 ± 1.00
- Number of Spots per 4 × 10^5 CD8 T cells: SIINFEKL (SEQ ID NO:868) ([2]; mouse, in vivo): 151 ± 20.7
- Number of Spots per 4 × 10^5 CD8 T cells: Unpulsed control ([2]; mouse, in vivo): 1.67 ± 0.58
- Number of Spots per 4 × 10^5 CD8 T cells: VSV control ([2]; mouse, in vivo): 0.00 ± 0.00
- Number of Spots per 300,000 CD8 T cells: Con A positive control ([2]; mouse, in vivo): 688 ± 41.7
- Number of Spots per 300,000 CD8 T cells: Medium control ([2]; mouse, in vivo): 0.00 ± 0.00
- Number of Spots per 300,000 CD8 T cells: SIINFEKL (SEQ ID NO:868) ([2]; mouse, in vivo): 211 ± 17.0
- Number of Spots per 300,000 CD8 T cells: Unpulsed control ([2]; mouse, in vivo): 0.50 ± 0.71
- Number of Spots per 300,000 CD8 T cells: VSV control ([2]; mouse, in vivo): 1.00 ± 0.00
- Number of Spots per 300,000 cells: Medium ([2]; mouse, in vivo): 0 ± 0
- Number of Spots per 300,000 cells: Medium control ([2]; mouse, in vivo): 0.67 ± 0.82
- Number of Spots per 300,000 cells: SIINFEKL (SEQ ID NO:868) ([2]; mouse, in vivo): 109 ± 14
- Number of Spots per 300,000 cells: Unpulsed Splenocytes ([2]; mouse, in vivo): 3.0 ± 2.0
- Number of Spots per 300,000 cells: Unpulsed control ([2]; mouse, in vivo): 0 ± 0
- Number of Spots per 300,000 cells: VSV control ([2]; mouse, in vivo): 0.67 ± 0.82
- Number of Spots per 400,000 cells: Con A positive control ([2]; mouse, in vivo): 930 ± 23 spots per 400,000 cells and 1007 ± 17 spots per 400,000 cells and 906 ± 17 spots per 400,000 cells
- Number of Spots per 400,000 cells: Medium control ([2]; mouse, in vivo): 1.0 ± 1.7 spots per 400,000 cells and 2.0 ± 0.41 spots per 400,000 cells and 1.33 ± 0.41 spots per 400,000 cells
- number of spots per 400,000 cells; immunized day 0, analyzed day 7 ([2]; mouse, in vivo): 72 ± 5.0 spots per 400,000 cells
- number of spots per 400,000 cells; immunized day 0, analyzed day 21 ([2]; mouse, in vivo): 42 ± 7.0 spots per 400,000 cells
- number of spots per 400,000 cells; immunized day 0, analyzed day 28 ([2]; mouse, in vivo): 82 ± 11 spots per 400,000 cells
- number of spots per 400,000 cells; immunized days 0, 7, analyzed day 21 ([2]; mouse, in vivo): 24 ± 6.0 spots per 400,000 cells
- number of spots per 400,000 cells; immunized days 0, 14, analyzed day 28 ([2]; mouse, in vivo): 25 ± 9.0 spots per 400,000 cells
- Number of Spots per 300,000 cells: SIINFEKL ([2]; mouse, in vivo, sc): 11 ± 1.8
- CTL assay: % killing at 200:1 E/T [4]: 9.91 ± 5.57%
- number of mice with tumors after 31 days [5]: Three of 10
- Pg/ml IL-2 produced by B3Z cells [6]: 46 ± 11 pg/mL

Sequence: NLLRLTGWFFRKSSWDFITV (SEQ ID NO:911) (Hybrid antigen)
- Number of Spots per 300,000 cells, Medium ([2]; mouse, in vivo): 0.7 ± 0.8 Spots per 300,000 cells
- Number of Spots per 300,000 cells, Response to Class I epitope when Class I and Class II hybrid antigen admixture is administered ([2]; mouse, in vivo): 98 ± 5.8 Spots per 300,000 cells
- Number of Spots per 300,000 cells, Response to Class I epitope when Class I hybrid antigen administered ([2]; mouse, in vivo): 18 ± 0.7 Spots per 300,000 cells
- Number of Spots per 300,000 cells, Splenocytes ([2]; mouse, in vivo): 0.7 ± 0.4 Spots per 300,000 cells

Sequence: NLLRLTGWFRSIINFEKL
- Number of Spots per 300,000 cells: Medium ([2]; mouse, in vivo): 0.67 ± 0.58
- Number of Spots per 300,000 cells: SIINFEKL (SEQ ID NO:868) ([2]; mouse, in vivo): 12 ± 2
- Number of Spots per 300,000 cells: Unpulsed Splenocytes ([2]; mouse, in vivo): 0.67 ± 0.58
- Number of Spots per 400,000 cells: Medium control ([2]; mouse, in vivo): 1.0 ± 1.7 spots per 400,000 cells
- Number of Spots per 400,000 cells: Unpulsed control ([2]; mouse, in vivo): 0.0 ± 0.0 spots per 400,000 cells
- Number of spots per 400,000 cells: VSV control ([2]; mouse, in vivo): 0.67 ± 0.58 spots per 400,000 cells
- Number of spots per 400,000 cells: SIINFEKL (SEQ ID NO:868) ([2]; mouse, in vivo, sc): 31 ± 5.7 spots per 400,000 cells

Sequence: NLLRLTGWRKSIINFEKL
- Number of Spots per 400,000 cells: Con A positive control ([2]; mouse, in vivo): 842 ± 73 spots per 400,000 cells
- Number of Spots per 400,000 cells: Medium control ([2]; mouse, in vivo): 1.0 ± 1.0 spots per 400,000 cells
- Number of Spots per 400,000 cells: Unpulsed control ([2]; mouse, in vivo): 1.0 ± 1.0 spots per 400,000 cells
- Number of spots per 400,000 cells: SIINFEKL (SEQ ID NO:868) ([2]; mouse, in vivo): 24 ± 1 spots per 400,000 cells
- Number of spots per 400,000 cells: VSV control ([2]; mouse, in vivo): 5.0 ± 3.0 spots per 400,000 cells
- CTL % killing at 200:1 E/T [4]: 24%

Sequence: RGYVYQGL
- Kd [7]: 82 µM

Sequence: SIINFEKL [reference compound]
- Number of spots per 400,000 cells: SIINFEKL (SEQ ID NO:868) ([2]; Ex. 8 (200-17), B6 mice, no added hsp70, 10 μg SIINFEKL or 0.5 μg […]): 2.33 ± 0.41 spots per 400,000 cells
- Number of Spots per 400,000 cells: Con A positive control ([2]; Ex. 8 (200-17), doses as E40): 928 ± 72 spots per 400,000 cells
- Number of Spots per 400,000 cells: Medium control ([2]; Ex. 8 (200-17), doses as E40): 0.33 ± 0.41 spots per 400,000 cells
- Number of Spots per 400,000 cells: Unpulsed control ([2]; Ex. 8 (200-17), doses as E40): 1.33 ± 0.82 spots per 400,000 cells
- Number of spots per 400,000 cells: VSV control ([2]; Ex. 8 (200-17), doses as E40): 1.7 ± 0.41 spots per 400,000 cells
- Number of spots per 400,000 cells: VSV control ([2]; Ex. 9 (VSV-72-02), doses as E55): 1.0 ± 1.0 spots per 400,000 cells
- number of spots per 400,000 cells; immunized day 0, analyzed day 7 ([2]; Ex. 17 prime-boost, 2 μg hsp70, 2 μg hsp70 with 4 μg SIINFEKL or 4 μg hybrid antigen, 2 μg hybrid antigen alone, SIINFEKL dose not given): 3.0 ± 2.0 spots per 400,000 cells
- number of spots per 400,000 cells; immunized day 0, analyzed day 21 [2, 8]: 0.0 ± 1.0 spots per 400,000 cells
- number of spots per 400,000 cells; immunized day 0, analyzed day 28 [2, 8]: 1.0 ± 1.0 spots per 400,000 cells
- number of spots per 400,000 cells; immunized days 0, 7, analyzed day 21 [2, 8]: 2.0 ± 1.0 spots per 400,000 cells
- number of spots per 400,000 cells; immunized days 0, 14, analyzed day 28 [2, 8]: 1.0 ± 1.0 spots per 400,000 cells
- Number of Spots per 400,000 cells: Con A positive control ([2]; mouse, in vivo): 478 ± 67 spots per 400,000 cells
- Number of Spots per 400,000 cells: Medium control ([2]; mouse, in vivo): 0.0 ± 0.0 spots per 400,000 cells
- Number of Spots per 400,000 cells: Unpulsed control ([2]; mouse, in vivo): 0.0 ± 1.0 spots per 400,000 cells
- Number of spots per 400,000 cells: SIINFEKL (SEQ ID NO:868) ([2]; mouse, in vivo): 1.0 ± 1.0 spots per 400,000 cells
- CTL % killing at 200:1 E/T [4]: 6%
- Pg/ml IL-2 produced by B3Z cells ([6]; Ex. 12 (200-MF-41), 0.5 ng SIINFEKL, 5 ng […], 1.4 ug hsp70): 2690 ± 369 pg/mL
